How the values were obtained:
BDF1 mice = assay: Acute toxicity (LD50), 21 days observation; format: in vivo; settings: BDF1 mice of both sexes
Description: Species: BDF1 mice of both sexes
Treatment: a volume of 0.2 ml./10 g. body weight of a suspension of the tested compounds in water containing 2% of Tween-80 was used.
Number of animals: 10/dose
Observation time: 21 days

Rausher leukemia = assay: Antitumour activity, Rauscher leukemia, spleen weight (Table 3); format: in vivo, CFLP mice; settings: 10.0 mg./kg. 6× i.p., from the 2nd day
Description: (§1) The leukemia and ascites type tumours were transplanted intraperitoneally, using an amount of 10^5 -10^7 cells, while in the case of solid tumours, small pieces of tumours were implanted subcutaneously with a trocar. Treatment:
(§2) Mice were treated with a volume of 0.1 ml./10 g. body-weight of a suspension of the tested compounds in water containing 2% of Tween-80, while rats were treated with a volume of 0.1 ml./100 g. bodyweight of a suspension of the tested compounds in water containing 5% of Tween-80.
(§3) In the case of solid tumours (Harding-Passey melanoma, S-180 and Yoshida sarcoma) the tumours were removed on the 8 to 14th day, and the inhibition was calculated by the weight of the tumours, using the following formula: [formula]
A similar method was applied in the case of the Rauscher leukemia too, but the weight of the spleen was taken, instead of the tumour, in the formula mentioned above.

[1] = tested on: Ehrlich ascites carcinoma; assay: Way of activity: mitosis index in Ehrlich ascites carcinoma; format: in vivo, Mice; settings: in 24 hours; i.p. on 6th day, equitoxic doses
Description: (§4) Mice, being infected with Ehrlich ascites carcinoma, were treated intraperitoneally on the 6th day after transplantation with equitoxic doses of compounds 1, 2 and 6. The duration of the activity was investigated by determining the total cell number and the way of action by determining the mitosis index* and the thymidine index**. It could be shown that both compounds 1 and 2 inhibit the increase of the total cell number for 35 days, while a similar inhibition of the reference compound 6 lasts only for 17 days. As far as the quality of the activity is concerned, compounds 1 and 2 decrease the mitosis-index and the thymidine index in 24 hours by 90%, while in the case of compound 6 the decrease amounts only to 45 to 50%, and the maximum is reached on the 4th day.
*mitosis index=number of dividing cells/1000 tumour cells

Yoshida s.c. sarcoma = assay: Antitumour activity, Yoshida s.c. sarcoma, tumour weight (Table 3); format: in vivo, CFY rats; settings: from the 2nd day
Description: as §1, §2, §3

[2] = tested on: Ehrlich ascites carcinoma; assay: Duration of activity: total cell number in Ehrlich ascites carcinoma; format: in vivo, Mice; settings: i.p. on the 6th day after transplantation, equitoxic doses
Description: as §4

[3] = tested on: Ehrlich ascites carcinoma; assay: Way of activity: thymidine index (3H-thymidine incorporation into DNS) in Ehrlich ascites carcinoma; format: in vivo, Mice; settings: in 24 hours; i.p. on 6th day, equitoxic doses
Description: as §4
**thymidine index=^3 H-thymidine incorporation into the DNS of the tumour cell.

P-388 leukemia = assay: Antitumour activity, P-388 leukemia (Table 2); format: in vivo, BDF1 mice; settings: 12.0 mg./kg. 4× i.p., from the 2nd day; animals recovered/treated
Description: as §1, §2
(§5) The ascites and leukemia-type tumours were evaluated with the exception of the Rausher leukemia by the increase of the life span and by complete recovery. [formula]
(§6) Recovery=90 days of tumour free life after transplantation.

L-120 leukemia = assay: Antitumour activity, L-1210 leukemia (Table 2); format: in vivo, BDF1 mice; settings: from the 2nd day; for Recovery (90 day survival): animals recovered/treated
Description: as §1, §2, §5, §6

Harding-Passey melanoma = assay: Antitumour activity, Harding-Passey melanoma, tumour weight (Table 3); format: in vivo, CFLP mice; settings: from the 4th day after transplantation
Description: as §1, §2, §3

[4] = tested on: Developed Yoshida s.c. sarcoma; assay: Recovery from developed Yoshida s.c. sarcoma, treated on 6th day (Table 4); format: in vivo, CFY rats; settings: 50 mg./kg. 1× i.p. on 6th day; animals recovered/treated
Description: as §1, §2, §6

Ehrlich acites carcinoma = assay: Antitumour activity, Ehrlich ascites carcinoma (Table 2); format: in vivo, CFLP mice; settings: 1.5 mg./kg. 4× i.p., from the 2nd day; animals recovered/treated
Description: as §1, §2, §5, §6

S-180 s.c. sarcoma = assay: Antitumour activity, S-180 s.c. sarcoma, tumour weight (Table 3); format: in vivo, CFLP mice; settings: from the 2nd day
Description: as §1, §2, §3

NK/Ly ascites lymphoma = assay: Antitumour activity, NK/Ly ascites lymphoma (Table 2); format: in vivo, CFLP mice; settings: from the 2nd day; for Recovery (90 day survival): animals recovered/treated
Description: as §1, §2, §5, §6

Substance: 1,4-bis[3-(2-chloroethyl)-N-nitrosoureido]-1,4-dideoxy-D,L-threitol [Compound 1]
- LD50 value i.p. (BDF1 mice; i.p.): 80 mg/kg
- LD50 value p.o. (BDF1 mice; p.o.): 135 mg/kg
- Inhibition (spleen weight) (Rausher leukemia): 78%
- Decrease of the mitosis-index [1]: 90%
- Inhibition (tumour weight) (Yoshida s.c. sarcoma; 12 mg./kg. 4× i.p.): 99%
- Inhibition (tumour weight) (Yoshida s.c. sarcoma; 24 mg./kg. 1× i.p.): 76%
- Duration of inhibition of the increase of the total cell number [2]: 35 days
- Decrease of the thymidine index [3]: 90%
- Recovery (90 day survival) (P-388 leukemia): 7/8
- Increase in life span (L-120 leukemia; 7.5 mg./kg. 1× i.p.): 45%
- Recovery (90 day survival) (L-120 leukemia; 7.5 mg./kg. 1× i.p.): 2/8
- Increase in life span (L-120 leukemia; 12.5 mg./kg. 1× p.o.): 23%
- Recovery (90 day survival) (L-120 leukemia; 12.5 mg./kg. 1× p.o.): 1/8
- Increase in life span (L-120 leukemia; 12.5 mg./kg. 3× p.o.): 30%
- Recovery (90 day survival) (L-120 leukemia; 12.5 mg./kg. 3× p.o.): 3/8
- Increase in life span (L-120 leukemia; 15.0 mg./kg. 1× i.p.): 29%
- Recovery (90 day survival) (L-120 leukemia; 15.0 mg./kg. 1× i.p.): 3/8
- Increase in life span (L-120 leukemia; 25.0 mg./kg. 1× p.o.): 111%
- Recovery (90 day survival) (L-120 leukemia; 25.0 mg./kg. 1× p.o.): 3/8
- Recovery (90 day survival) (L-120 leukemia; 25.0 mg./kg. 3× p.o.): 6/8
- Increase in life span (L-120 leukemia; 30.0 mg./kg. 1× i.p.): 230%
- Recovery (90 day survival) (L-120 leukemia; 30.0 mg./kg. 1× i.p.): 7/8
- Increase in life span (L-120 leukemia; 50.0 mg./kg. 1× p.o.): 84%
- Recovery (90 day survival) (L-120 leukemia; 50.0 mg./kg. 1× p.o.): 4/8
- Inhibition (tumour weight) (Harding-Passey melanoma; 10.0 mg./kg. 5× p.o.): 96%
- Inhibition (tumour weight) (Harding-Passey melanoma; 24.0 mg./kg. 1× i.p.): 81%
- Recovery (90 day survival) [4]: 5/7
- Recovery (90 day survival) (Ehrlich acites carcinoma): 6/8
- Inhibition (tumour weight) (S-180 s.c. sarcoma; 3.0 mg./kg. 2× i.p.): 43%
- Inhibition (tumour weight) (S-180 s.c. sarcoma; 10.0 mg./kg. 4× p.o.): 42%
- Inhibition (tumour weight) (S-180 s.c. sarcoma; 12.0 mg./kg. 4× i.p.): 80%
- Recovery (90 day survival) (NK/Ly ascites lymphoma; 1.5 mg./kg. "433" i.p.): 6/8
- Recovery (90 day survival) (NK/Ly ascites lymphoma; 3.0 mg./kg. 4× i.p.): 8/8
- Increase in life span (NK/Ly ascites lymphoma; 30.0 mg./kg. 4× p.o.): 89%
- Recovery (90 day survival) (NK/Ly ascites lymphoma; 30.0 mg./kg. 4× p.o.): 1/7

Reference: US4237273A, “Bis(nitrosoureido)-polyol derivatives” (Richter Gedeon Vegyeszeti Gyar RT, priority 1977, dated 1980)
